Drawing on patent US20250101052A1, “COMPOUND FOR EGFR KINASE INHIBITOR, COMPOSITION, AND USE THEREOF” (INNOVATION INSTITUTE FOR ARTIFICIAL INTELLIGENCE IN …, priority 2021, published 2025), this text covers IC50 for 14 compounds.

Structures are written as SMILES. Where only a bound is given, the exact number is not on record here.

The test system of assay [1] is BaF3-EGFR^L858R/T790M/C797S cells. As to the kind of experiment: BaF3 cell proliferation inhibition experiment (CCK-8). The settings on record: Ba/F3 EGFR-L858R, 72 hours. It is filed as cell-based. The text has this: BaF3 cell proliferation inhibition experiment: The compounds of the present invention have excellent inhibitory activity against the proliferation of BaF3-EGFR^L858R/T790M/C797S cells
A. Cell line: BaF3 cells with stable overexpression of wild-type genes are named BaF3-EGFR^WT, and BaF3 cells with stable overexpression of EGFR^L858R/T790M/C797S EGFR^del19/T790M/C797S EGFR^L858R/C797S and EGFR^del19/C797S mutant genes are named BaF3-EGFR^L858R/T790M/C797S BaF3-EGFR^del19/T790M/C797S BaF3-EGFR^L858R/C797S and BaF3-EGFR^del19/C797S cells, respectively. Mediums:
(§1) a) The medium was preheated in a 37° C. water bath.
(§2) b) The cryopreservation tube was taken from the liquid nitrogen tank, quickly placed in a 37° C. water bath, and melted completely within 1 minute.
(§3) c) The cell suspension was transferred to a 15 mL centrifuge tube containing a 10 mL medium and centrifuged at 1000 rpm for 4 minutes.
(§4) d) The supernatant was discarded, the cells were resuspended in a 1 mL medium and transferred to a […] culture dish containing a 10 mL medium, 20% serum and 50 ng/mL EGF were administered to the first-generation medium, and culture was conducted in a 37° C. and 5% CO2 incubator.
(§5) b) The cells in the culture dish were blown evenly with a 5 mL pipette, and 500 μL of the cells were pipetted out to be inoculated into a new […] culture dish and cultured in a 37° C. and 5% CO2 incubator.
(§6) a) The compound to be tested (10 mM stock solution) was diluted with 100% DMSO to 1 mM, and diluted with a culture solution in a 24-well plate to prepare of a working solution of 2 μM concentration.
(§7) b) The 2 μM working solution was diluted with a triple dilution method to obtain working solutions with approximate concentrations of 2 μM, 600 nM, 200 nM, 60 nM, and 20 nM.
(§8) a) The cells at the logarithmic growth phase were centrifuged at 1000 rpm for 4 minutes, resuspended with a medium (containing 10% serum and 50 ng/mL EGF), and counted.
(§9) b) The cells were inoculated into a 96-well plate with a cell density of 4000 cells/well, and placed in a 37° C. and 5% CO2 incubator for culture for 12 hours.
(§10) a) The prepared compound was added to a 96-well plate, with 100 μL per well. The final concentrations were 1 μM, 300 nM, 100 nM, 30 nM, 10 nM, and 0 nM, and the final concentration of DMSO was 0.2%. A medium served as a blank control.
(§11) b) The cells were placed in 37° C. and 5% CO2 incubator for culture for 72 hours.
(§12) (5) Cell Viability Testing
a) The 96-well cell culture plate was taken out, and 20 μL of a CCK-8 reagent (Cell Counting Kit-8, Topscience, Catalog No. C0005) was added in the dark.
b) Mixing well was conducted on a horizontal shaking table at a room temperature at 100 rpm for 5 minutes.
c) The culture plate was placed in a 37° C. constant-temperature incubator for incubation.
d) Starting from the addition of the CCK-8, the absorbance at 450 nm was read using the TECAN microplate reader at 1 hour, 2 hours, and 3 hours, respectively.
(§13) The data was analyzed using GraphPad Prism 8.0 software to obtain a fitted curve of activity of the compounds. The IC50 of the compounds was fitted from nonlinear regression equation.

For assay [2], the target named is EGFR^L858R/T790M/C797S kinase (Homo sapiens (Human), UniProt P00533, C797S/L858R/T790M). Briefly: EGFR^L858R/T790M/C797S kinase inhibitory activity experiment. In kind it is biochemical. To be noted: in vitro. As for the experimental part:
EGFRL^858R/T790M/C797S kinase inhibitory activity experiment: The compounds of the present invention have excellent in-vitro inhibitory activity against EGFR^L858R/T790M/C797S kinase
• Centrifuge (manufacturer: Eppendorf, model: 5430) • Microplate reader (manufacturer: Perkin Elmer, model: Caliper EZ ReaderII) • Echo 550 (manufacturer: Labcyte, model: Echo 550) • Experimental Method • Compound preparation: • A 10 mM storage solution was prepared.
(1) 1×Kinase buffer was prepared.
(2) Preparation of concentration gradient of compound: The tested compound has a test concentration starting from 1 μM, diluted 10 times, with 10 concentrations, and subjected to single-well or multi-well detection. The compound was diluted to a 100% DMSO solution with a final concentration of 100 times in a 384 source plate. […] of the compound at a final concentration of 100 times was transferred to the target plate 384-well-plate using the pipette Echo 550.
(3) A kinase solution with a final concentration of 2.5 times was prepared using 1× Kinase buffer.
(4) 10 μL of the kinase solution with the final concentration of 2.5 times was added to a compound well and a positive control well, respectively; 10 μL of 1×Kinase buffer was added to a negative control well.
(5) Centrifugation was conducted at 1000 rpm for 30 seconds, and the reaction plate was shaken and mixed well, and incubated at a room temperature for 10 minutes.
(6) A mixed solution of ATP with a final concentration of 5/3 times and Kinase substrate 22 was prepared using 1×Kinase buffer.
(7) A mixed solution of 15 μL of ATP with a final concentration of 5/3 times and a substrate was added for initial reaction.
(8) The 384-well-plate was centrifuged at 1000 rpm for 30 seconds, shaken and mixed well, and incubated at a room temperature for 60 minutes.
(9) 30 μL of a termination detection solution was added to stop the kinase reaction. Centrifugation was conducted at 1000 rpm for 30 seconds. Shaking and mixing well were conducted.
(10) The conversion rate was read using Caliper EZ Reader.
where Conversion %_sample is the conversion rate reading of the sample; Conversion %_min: the average value of negative control wells, representing the conversion rate reading of wells without enzyme activity; Conversion %_max: the average value of positive control wells, representing the conversion rate reading of wells without compound inhibition; % Inhibition represents the inhibition rate.
Fitting of Dose-Response Curve
Using the log value of concentration as the X-axis and the percentage inhibition rate as the Y-axis, the dose-response curve was fitted using the log(inhibitor) vs. response —Variable slope of the analysis software GraphPad Prism 5 to obtain the IC50 value of each compound on enzyme activity.

For another assay, the system named is A431 cells. As to the kind of experiment: A431 cell proliferation inhibition (SRB). It is filed as cell-based. The settings on record: Homo sapiens, A-431, wild-type EGFR, 72 hours. The protocol: A431 cell proliferation inhibition: The compounds of the present invention have good selectivity to wild-type EGFR
as §1, §2, §3, §4, §5, §6, §7, §8, §9, §10, §11, §12
a) The cell supernatant was discarded, rinsed once with 1×PBS, and fixed with 10% trichloroacetic acid for 1 hour. The trichloroacetic acid was discarded, excess trichloroacetic acid was washed off with tap water, and the 96-well plate was dried in a 60° C. oven.
b) 70 μL of an SRB stain was added to each well of the dry 96-well plate for staining at a room temperature for 30 minutes. Excess SRB stain was washed off with 1% glacial acetic acid, and the 96-well plate was dried in a 60° C. oven.
c) SRB was dissolved with 100 μL of 10 mM Tris-base solution. The absorbance was detected at 540 nm ultraviolet absorption using the microplate reader. The data was analyzed.
as §13

Sequence of EGFR^L858R/T790M/C797S kinase (P00533 25-1210 T790M/C797S/L858R): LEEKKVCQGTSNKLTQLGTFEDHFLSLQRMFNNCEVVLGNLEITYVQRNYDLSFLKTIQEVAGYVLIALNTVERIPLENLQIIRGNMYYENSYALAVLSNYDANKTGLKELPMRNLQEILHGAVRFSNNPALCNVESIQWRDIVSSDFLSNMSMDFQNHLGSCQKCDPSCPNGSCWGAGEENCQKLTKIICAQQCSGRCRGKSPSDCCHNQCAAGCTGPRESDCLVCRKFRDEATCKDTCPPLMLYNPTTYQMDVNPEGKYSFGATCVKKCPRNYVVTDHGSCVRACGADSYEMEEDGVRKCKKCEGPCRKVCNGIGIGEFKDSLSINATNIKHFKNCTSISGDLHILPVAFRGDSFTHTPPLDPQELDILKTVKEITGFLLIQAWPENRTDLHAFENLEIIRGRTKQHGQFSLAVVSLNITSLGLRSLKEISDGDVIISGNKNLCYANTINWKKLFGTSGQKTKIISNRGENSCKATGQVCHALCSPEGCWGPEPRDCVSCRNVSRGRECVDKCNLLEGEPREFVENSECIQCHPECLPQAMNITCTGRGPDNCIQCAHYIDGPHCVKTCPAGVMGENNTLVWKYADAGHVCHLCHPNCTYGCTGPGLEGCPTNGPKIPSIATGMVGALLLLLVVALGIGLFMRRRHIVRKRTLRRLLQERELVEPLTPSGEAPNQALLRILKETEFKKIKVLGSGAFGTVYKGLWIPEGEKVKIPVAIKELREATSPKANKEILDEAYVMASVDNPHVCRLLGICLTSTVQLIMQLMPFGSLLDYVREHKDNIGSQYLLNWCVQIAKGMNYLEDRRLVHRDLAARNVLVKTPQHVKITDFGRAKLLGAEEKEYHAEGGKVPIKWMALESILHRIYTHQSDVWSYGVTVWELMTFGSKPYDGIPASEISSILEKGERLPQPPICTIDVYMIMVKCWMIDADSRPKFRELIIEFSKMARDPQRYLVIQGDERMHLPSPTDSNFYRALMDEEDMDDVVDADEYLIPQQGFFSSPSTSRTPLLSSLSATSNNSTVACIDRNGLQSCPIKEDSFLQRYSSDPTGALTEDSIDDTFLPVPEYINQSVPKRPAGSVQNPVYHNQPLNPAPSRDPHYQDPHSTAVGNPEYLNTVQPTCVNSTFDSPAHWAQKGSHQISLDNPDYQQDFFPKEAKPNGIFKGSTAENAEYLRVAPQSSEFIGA

`COc1cc(N2CC3(CCN(C)CC3)C2)c(C)cc1Nc1ncc(Cl)c(Nc2ccc(C)c(C)c2P(C)(C)=O)n1` [Compound 32]: the IC50 in assay [1] came to 55.4 nM; in assay [2], 0.92 nM; in the assay with A431 cells, 962 nM.
As for `CCc1cc(Nc2ncc(Cl)c(Nc3ccc(C)c(C)c3P(C)(C)=O)n2)c(OC)cc1N1CCC2(CCN(C)CC2)CC1` [Compound 55, (6-((5-Chloro-2-((5-ethyl-2-methoxy-4-(9-methyl-3,9-diazaspiro[5.5]undecan-3-yl)phenyl)amino)pyrimidin-4-yl)amino)-2,3-dimethylphenyl)dimethylphosphine oxide], the IC50 in assay [1] came out at 48.6 nM; in assay [2] it was 0.297 nM; in the assay on A431 cells, 700 nM.
As to `COc1cc(N2CCC3(CC2)CC(N(C)C)C3)c(Cl)cc1Nc1ncc(Cl)c(Nc2cc(C)c(C)cc2P(C)(C)=O)n1` [Compound 13, (2-((5-Chloro-2-((5-chloro-4-(2-(dimethylamino)-7-azaspiro[3.5]nonan-7-yl)-2-methoxyphenyl)amino)pyrimidin-4-yl)amino)-4,5-dimethylphenyl)dimethylphosphine oxide], the figures for the IC50 (in assay [1]; in assay [2]; with A431 cells) were 38.1 nM, 0.89 nM and > 500 nM, respectively.
For the compound `CCc1cc(Nc2ncc(Cl)c(Nc3cc(Cl)c(Cl)cc3P(C)(C)=O)n2)c(OC)cc1N1CCC2(CC1)CC(N(C)C)C2` [Compound 7, (4,5-Dichloro-2-((5-chloro-2-((4-(2-(dimethylamino)-7-azaspiro[3. 5]nonan-7-yl)-5-ethyl-2-methoxyphenyl)amino)pyrimidin-4-yl)amino)phenyl)dimethylphosphine oxide], the IC50 in assay [1] was 49.9 nM; in assay [2], 0.98 nM; in the assay on A431 cells, > 500 nM.
For the compound `CCc1cc(Nc2ncc(Cl)c(Nc3cc(C(F)(F)F)ccc3P(C)(C)=O)n2)c(OC)cc1N1CCC2(CC1)CC(N(C)C)C2` [Compound 8, (2-((5-Chloro-2-((4-(2-(dimethylamino)-7-azaspiro[3.5]nonan-7-yl)-5-ethyl-2-methoxypheny 1)amino)pyrimidin-4-yl)amino)-4-(trifluoromethyl)phenyl)dimethylphosphine oxide], the IC50 in assay [1] was 261 nM; in assay [2], 29 nM; in the assay on A431 cells, > 1000 nM.
With `COc1cc(N2CC3(CCN(C)CC3)C2)c(C)cc1Nc1ncc(Cl)c(Nc2cc(C)c(C)cc2P(C)(C)=O)n1` [Compound 5, (2-((5-Chloro-2-((2-methoxy-5-methyl-4-(7-methyl-2,7-diazaspiro[3.5]nonan-2-yl)phenyl)amino)pyrimidin-4-yl)amino)-4,5-dimethylphenyl)dimethylphosphine oxide], the IC50 in assay [1] was 42.3 nM; in assay [2] it was 11 nM; in the assay with A431 cells it was > 500 nM.
With `CCc1cc(Nc2ncc(Cl)c(Nc3cc(C)c(C)cc3P(C)(C)=O)n2)c(OC)cc1N1CCC2(CC1)CC(N(C)C)C2` [Compound 17, (2-((5-Chloro-2-((4-(2-(dimethylamino)-7-azaspiro[3.5]non-7-yl)-5-ethyl-2-methoxyphenyl)amino)pyrimidin-4-yl)amino)-4,5-dimethylphenyl)dimethylphosphine oxide], the IC50 in assay [1] is 45.4 nM; in assay [2] it was 0.77 nM; with A431 cells, > 500 nM.
`COc1cc(N2CCC3(CCN(C)CC3)CC2)ccc1Nc1ncc(Cl)c(Nc2ccc(C)c(C)c2P(C)(C)=O)n1` [Compound 4, (6-((5-Chloro-2-((2-methoxy-4-(9-methyl-3,9-diazaspiro[5.5]undecan-3-yl)phenyl)amino)pyrimidin-4-yl)amino)-2,3-dimethylphenyl)dimethylphosphine oxide]: in assay [2], inhibition was half-maximal at 16 nM (IC50).
As for `COc1cc(N2CC3(CCC(CC#N)CC3)C2)c(Cl)cc1Nc1ncc(Cl)c(Nc2cc(C)c(C)cc2P(C)(C)=O)n1` [Compound 43, 2-(2-(2-chloro-4-((5-chloro-4-((2-(dimethylphosphoryl)-4,5-dimethylphenyl)amino)pyrimidin-2-yl)amino)-5-methoxyphenyl)-2-azaspiro[3.5]nonan-7-yl)acetonitrile], the midpoint of inhibition in assay [2], the IC50, lay at 25.2 nM.
In assay [2], `COc1cc(N2CCC3(CC2)CC(N(C)C)C3)c(F)cc1Nc1ncc(Cl)c(Nc2ccc(C)c(C)c2P(C)(C)=O)n1` [Compound 22] returned an IC50 of 10 nM.
The same measure, in the same setting: the same measure for `CCc1cc(Nc2ncc(Cl)c(Nc3cc(C)c(C)cc3P(C)(C)=O)n2)c(OC)cc1N1CCC(N2CC(N(C)C)C2)CC1` [Compound 15, (2-((5-chloro-2-((4-(4-(3-(dimethylamino)azetidin-1-yl)piperidine-1-yl)-5-ethyl-2-methoxyphenyl)amino)pyrimidin-4-yl)amino)-4,5-dimethylphenyl)dimethylphosphine oxide]: 3.8 nM; for `CCc1cc(Nc2ncc(Cl)c(Nc3ccc(C)c(C)c3P(C)(C)=O)n2)c(OC)cc1N1CCC(N2CC3CC(C2)N3C)CC1` [Compound 53, (6-((5-Chloro-2-((5-ethyl-2-methoxy-4-(4-(6-methyl-3,6-diazadicyclo[3.1.1]heptane-3-yl)piperidin-1-yl)phenyl)amino)pyrimidin-4-yl)amino)-2,3-dimethylphenyl)dimethylphosphine oxide]: 0.269 nM.
`COc1cc(N2CC3(CCN(C4CC4)CC3)C2)c(Cl)cc1Nc1ncc(Cl)c(Nc2cc(C)c(C)cc2P(C)(C)=O)n1` [Compound 41] registered an IC50 in assay [2] of 0.89 nM.
In turn, `CCc1cc(Nc2ncc(Cl)c(Nc3ccc(C)c(C)c3P(C)(C)=O)n2)c(OC)cc1N1CC2(CCN(CC3CC3)CC2)C1` [Compound 26] showed an IC50 in assay [2] of 0.74 nM.

One may read the IC50 as the concentration at which inhibition is half-maximal. Low values mean greater potency, high ones weaker potency.
